Measurements published in patent EP3064205A1, “Therapeutic use of isomeric forms of 2-(4-chlorophenyl)quinolin-4-yl)(piperidin-2-yl)methanol” (Glionova AB, priority 2015, dated 2016).
Where two headings read alike, the source gives them in different places.

Experiments:
Experiment in all cases: 3D clonogenic assay (PDX)
Type in all cases: cell-based, human
LXFL 430 = conditions: LXFL 430, Lung Large Cell; for IC50: Homo sapiens
How it was run: (§1)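 PDX tumors from NMRI nu/nu mice were enzymatically dissociated into cell suspensions and plated in soft agar. After 24 h, cells received continuous exposure to 10 concentrations (50 µM down to 0.0015 µM, in duplicate) for 8–13 days at 37 °C. Colonies >50 µm were stained with INT tetrazolium and counted by automated imaging; IC50 values came from 4-parameter fits.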

CXF 647 = conditions: CXF 647, Colorectal; for IC50: Homo sapiens
How it was run: as §1

RXF 486 = conditions: RXF 486, Renal; for IC50: Homo sapiens
How it was run: as §1

PAXF 2046 = conditions: PAXF 2046, Pancreas; for IC50: Homo sapiens
How it was run: as §1

RXF 1114 = conditions: RXF 1114, Renal; for IC50: Homo sapiens
How it was run: as §1

RXF 631 = conditions: RXF 631, Renal; for IC50: Homo sapiens
How it was run: as §1

BXF 1228 = conditions: BXF 1228, Bladder; for IC50: Homo sapiens
How it was run: as §1

MEXF 276 = conditions: MEXF 276, Melanoma; for IC50: Homo sapiens
How it was run: as §1

MEXF 1765 = conditions: MEXF 1765, Melanoma; for IC50: Homo sapiens
How it was run: as §1

LXFA 983 = conditions: LXFA 983, Lung Adeno; for IC50: Homo sapiens
How it was run: as §1

CXF 1297 = conditions: CXF 1297, Colorectal; for IC50: Homo sapiens
How it was run: as §1

PAXF 2005 = conditions: PAXF 2005, Pancreas; for IC50: Homo sapiens
How it was run: as §1

IC50 (LXFL 430; read-out: abs. IC50): 9.06 µM
IC50 (LXFL 430; read-out: rel. IC50): 8.98 µM
IC50 (CXF 647; read-out: abs. IC50): 24.2 µM
IC50 (CXF 647; read-out: rel. IC50): 16.5 µM
IC50 (RXF 486; read-out: abs. IC50): 12.8 µM
IC50 (RXF 486; read-out: rel. IC50): 12.7 µM
IC50 (PAXF 2046; read-out: abs. IC50): 18.6 µM
IC50 (PAXF 2046; read-out: rel. IC50): 9.45 µM
IC50 (RXF 1114; read-out: abs. IC50): 8.18 µM
IC50 (RXF 1114; read-out: rel. IC50): 7.98 µM
IC50 (RXF 631; read-out: abs. IC50): 24.6 µM
IC50 (RXF 631; read-out: rel. IC50): 28.1 µM
IC50 (BXF 1228; read-out: abs. IC50): 8.12 µM
IC50 (BXF 1228; read-out: rel. IC50): 6.67 µM
IC50 (MEXF 276; read-out: abs. IC50): 4.73 µM
IC50 (MEXF 276; read-out: rel. IC50): 4.65 µM
IC50 (MEXF 1765; read-out: abs. IC50): 8.58 µM
IC50 (MEXF 1765; read-out: rel. IC50): 8.53 µM
IC50 (LXFA 983; read-out: abs. IC50): 4.81 µM
IC50 (LXFA 983; read-out: rel. IC50): 4.6 µM
IC50 (CXF 1297; read-out: abs. IC50): 6.42 µM
IC50 (CXF 1297; read-out: rel. IC50): 6.37 µM
IC50 (PAXF 2005; read-out: abs. IC50): 9.16 µM
IC50 (PAXF 2005; read-out: rel. IC50): 9.06 µM
Structure (SMILES): O[C@H](c1cc(-c2ccc(Cl)cc2)nc2ccccc12)[C@@H]1CCCCN1 [S1, (R)-(2-(4-chlorophenyl)quinolin-4-yl)((S)-piperidin-2-yl)methanol]
b (bottom plateau of concentration-effect curve) (LXFL 430): 14
t (top plateau of concentration-effect curve) (LXFL 430): 99
b (bottom plateau of concentration-effect curve) (CXF 647): 20
t (top plateau of concentration-effect curve) (CXF 647): 97
b (bottom plateau of concentration-effect curve) (RXF 486): 5
t (top plateau of concentration-effect curve) (RXF 486): 97
b (bottom plateau of concentration-effect curve) (PAXF 2046): 38
t (top plateau of concentration-effect curve) (PAXF 2046): 100
b (bottom plateau of concentration-effect curve) (RXF 1114): 30
t (top plateau of concentration-effect curve) (RXF 1114): 94
b (bottom plateau of concentration-effect curve) (RXF 631): 0
t (top plateau of concentration-effect curve) (RXF 631): 91
b (bottom plateau of concentration-effect curve) (BXF 1228): 22
t (top plateau of concentration-effect curve) (BXF 1228): 98
b (bottom plateau of concentration-effect curve) (MEXF 276): 15
t (top plateau of concentration-effect curve) (MEXF 276): 95
b (bottom plateau of concentration-effect curve) (MEXF 1765): 23
t (top plateau of concentration-effect curve) (MEXF 1765): 84
b (bottom plateau of concentration-effect curve) (LXFA 983): 30
t (top plateau of concentration-effect curve) (LXFA 983): 96
b (bottom plateau of concentration-effect curve) (CXF 1297): 15
t (top plateau of concentration-effect curve) (CXF 1297): 90
b (bottom plateau of concentration-effect curve) (PAXF 2005): 11
t (top plateau of concentration-effect curve) (PAXF 2005): 106
